Data as given in PMC5046141, “Discovery of Isoquinolinoquinazolinones as a Novel Class of Potent PPARγ Antagonists with Anti-adipogenic Effects” (Scientific Reports, 2016).

What was measured:
PPARγ2-LBD = biological target: T1, PPARγ2-LBD (Mus musculus, UniProt P37238); experiment: Surface plasmon resonance binding to immobilized PPARγ2-LBD; conditions: for Kd / kon / koff: SPR, 25 °C, PBS; for Kd: read-out: KD (equilibrium dissociation constant); for kon: read-out: ka (association rate constant); for koff: read-out: kd (dissociation rate constant)
T1 construct: mouse PPARγ2 (residues 230–505) were expressed as N-terminal GST-tagged proteins; made in house; host or cells: E. coli BL21(DE3)
T1 sequence (P37238 230-505): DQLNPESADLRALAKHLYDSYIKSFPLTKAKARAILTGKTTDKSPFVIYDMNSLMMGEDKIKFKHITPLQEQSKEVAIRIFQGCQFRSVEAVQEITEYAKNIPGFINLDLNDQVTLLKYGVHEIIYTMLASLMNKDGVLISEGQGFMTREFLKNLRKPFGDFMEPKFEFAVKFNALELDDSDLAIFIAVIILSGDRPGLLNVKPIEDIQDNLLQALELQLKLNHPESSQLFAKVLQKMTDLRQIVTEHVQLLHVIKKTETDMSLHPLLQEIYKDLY
Method: PPARγ2 protein was immobilized on the sensor chip, and the response (in resonance unit; RU) as a result of binding was continuously recorded and presented graphically as a function of time[25]. The association rate (ka also known as on rate (kon)), dissociation rate (kd also known as off rate (koff)), and equilibrium dissociation constant (KD) were calculated using the Scrubber 2 program (Table 2).
The recombinant ligand-binding domains (LBDs) of mouse PPARγ2 (residues 230–505) were expressed as N-terminal GST-tagged proteins using the pGEX4T3 vector. pGXE4T3-mPPARγ2-LBD plasmid was transfected into BL21(DE3) competent cells and the cells were grown in LB medium containing 50 μg/mL ampicillin at 37 °C to an O. D. 600 of 0.6–0.8. The expression of PPARγ2-LBD was induced by the addition of 0.2 mM isopropyl β-D-thiogalactoside (IPTG). After treatment for 24 h at 22 °C, the cells were harvested and disrupted using sonication buffer [25 mM HEPES (pH 7.5), 150 mM NaCl, 1% NP-40, 0.25% sodium deoxycholate, 10% glycerol, 25 mM NaF, 1 mM EDTA, 1 mM Na3VO4, 250 μM PMSF, 10 μg/mL leupeptin, and 10 μg/ml aprotinin]. The supernatant was applied to glutathione-Sepharose beads for 24 h at 4 °C. The bound GST fusion proteins were washed with the sonication buffer and eluted by elution buffer [25 mM glutathione, 50 mM Tris pH 8.8, 200 mM NaCl].
Immobilization of the protein on the hydrophilic carboxymethylated dextran matrix of the sensor chip (Reichert) was carried out using a standard primary amine coupling reaction. Free carboxyl groups on the surface were modified by injecting a mixture of 0.1 M 1-ethyl-3-(3-dimethylaminopropyl) carbodiimide hydrochloride and 0.05 M N-hydroxysuccinimide at a flow rate of 20 μL/min to generate a reactive succinimide ester surface. Baseline equilibration was achieved by flushing the chip with PBS buffer for 1–2 h. All of the SPR data was collected at 25 °C with PBS as running buffer at a constant flow of 30 μL/min. All the sensorgrams were processed by using automatic correction for nonspecific bulk refractive index effects. All the kinetic analyses of the binding to PPARγ2-LBD were calculated using the Scrubber2 program (Bio-Logic Software).

3T3-L1 cells = experiment: Expression of adipogenesis markers (immunoblotting, RT-PCR) in MDI-differentiated 3T3-L1 cells; format: cell-based, mouse; conditions: after MDI-induced differentiation
Method: PPARγ alone or together with CCAAT-enhancer-binding protein α (C/EBPα) regulates many adipocyte genes that are involved in creating and maintaining the adipocyte phenotype. To further analyze the effect of isoquinolinoquinazolinones on adipogenesis, the expression of the adipocyte marker genes (C/EBPα and PPARγ) was analyzed. The differentiation of 3T3-L1 cells into adipocytes was induced by incubating in MDI induction medium for 2 days followed by incubation in differentiation medium for an additional 6 days. After MDI-induced adipocyte differentiation of 3T3-L1 cells, adipogenic transcriptional factors were analyzed. The transcriptional factors C/EBPα and PPARγ were inhibited by 8n and 8o in terms of both protein (Fig. 2C,D) and RNA (Fig. 2E,F) levels.
Total cellular RNA was prepared using TRIzol reagent (Life Technologies) according to the manufacturer’s instructions. Random-primed cDNAs were synthesized from 1 μg of total RNA using Super-Script III First-Strand Synthesis System (Life Technologies). The following conditions were used for PCR: initial denaturation at 94 °C for 1 min; 28–30 cycles of denaturation at 94 °C for 30 s, annealing at a temperature optimized for each primer pair for 30 s, extension at 72 °C for 30 s; final extension at 72 °C for 5 min. […] RNA levels were quantified by image software, Multi Gauge, V3.0 (FUJIFILM).
At the end of differentiation, 3T3-L1 cells were washed with PBS and lysed in a lysis buffer (1% NP-40, 25 mM HEPES (pH 7.5), 10% glycerol, 150 mM NaCl, 25 mM NaF, 0.25% sodium deoxycholate, 1 mM EDTA, 1 mM Na3VO4, 10 μg/mL aprotinin, 10 μg/mL leupeptin, and 250 μM phenylmethanesulfonyl fluoride). […] Horseradish peroxidase-labeled secondary antibodies were detected and visualized using chemiluminescent western blotting reagent (Millipore). Protein expression levels were quantified by image software, Multi Gauge, V3.0 (FUJIFILM).

Compound	Kd (PPARγ2-LBD)	kon (PPARγ2-LBD)	koff (PPARγ2-LBD)	binding affinity relative to GW9662 (less than) (PPARγ2-LBD; ratio of KD values)	binding affinity relative to rosiglitazone (more than) (PPARγ2-LBD; ratio of KD values)	C/EBPα and PPARγ expression, protein and RNA levels (3T3-L1 cells)	mRNA expression of adiponectin and fatty acid synthase (FAS) (3T3-L1 cells)
COc1cc2cc3n(c(=O)c2cc1OC)CNc1cc(Cl)ccc1-3 [Compound 8o, 3-Chloro-10,11-dimethoxy-5H-isoquinolino[2,3-c]quinazolin-8(6H)-one]	146 µM	24 M⁻¹ s⁻¹	0.00351 s⁻¹	37 folds	4 folds	inhibited	strongly reduced
O=C(Nc1ccccc1)c1cc([N+](=O)[O-])ccc1Cl [GW9662, reference compound]	3.91 µM	15.1 M⁻¹ s⁻¹	5.9e-05 s⁻¹	–	–	–	–
COc1cc2cc3n(c(=O)c2cc1OC)CNc1ccc(Cl)cc1-3 [Compound 8n, 2-Chloro-10,11-dimethoxy-5H-isoquinolino[2,3-c]quinazolin-8(6H)-one]	–	–	–	–	–	inhibited	–
